# Patent US12539292B2, “BRM targeting compounds and associated methods of use” (Arvinas Operations, Inc., priority 2018, dated 2026)
# Read-outs that look alike come from different tables or passages of the source.
# Molecular target: T1, BRM (Homo sapiens, UniProt P51531)
# T1 construct: In-Cell Western Screen of BRM Degradation in SW1573 Cells; endogenous in cells; host or cells: SW1573
# Experiment: In-cell Western screen of BRM degradation in SW1573 cells (Dmax and DC50)
# Assay type: cell-based
# Settings: BRM degradation
# Procedure, shortened: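 SW1573 cells were treated overnight (18-20 hours) with compound at 0.1% final DMSO. They were then PFA-fixed, permeabilised with Triton X-100 and immunostained with 800 nm/680 nm secondary antibodies. BRM signal was quantified by LI-COR in-cell Western imaging to derive Dmax and DC50.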
# [1] = SW1573 cells, read-out: Dmax (% degraded)
# [2] = SW1573 cells, when tested at the top concentration of between 0.3 and 10 μM, read-out: Dmax (%) (% degraded)
# [3] = SW1573 cells, tested at the top concentration of between 0.3 and 10 μM, read-out: Dmax (%) (% degraded)
# [4] = SW1573 cells, Table 2D, read-out: *DC50
# T1 sequence (P51531 whole entry): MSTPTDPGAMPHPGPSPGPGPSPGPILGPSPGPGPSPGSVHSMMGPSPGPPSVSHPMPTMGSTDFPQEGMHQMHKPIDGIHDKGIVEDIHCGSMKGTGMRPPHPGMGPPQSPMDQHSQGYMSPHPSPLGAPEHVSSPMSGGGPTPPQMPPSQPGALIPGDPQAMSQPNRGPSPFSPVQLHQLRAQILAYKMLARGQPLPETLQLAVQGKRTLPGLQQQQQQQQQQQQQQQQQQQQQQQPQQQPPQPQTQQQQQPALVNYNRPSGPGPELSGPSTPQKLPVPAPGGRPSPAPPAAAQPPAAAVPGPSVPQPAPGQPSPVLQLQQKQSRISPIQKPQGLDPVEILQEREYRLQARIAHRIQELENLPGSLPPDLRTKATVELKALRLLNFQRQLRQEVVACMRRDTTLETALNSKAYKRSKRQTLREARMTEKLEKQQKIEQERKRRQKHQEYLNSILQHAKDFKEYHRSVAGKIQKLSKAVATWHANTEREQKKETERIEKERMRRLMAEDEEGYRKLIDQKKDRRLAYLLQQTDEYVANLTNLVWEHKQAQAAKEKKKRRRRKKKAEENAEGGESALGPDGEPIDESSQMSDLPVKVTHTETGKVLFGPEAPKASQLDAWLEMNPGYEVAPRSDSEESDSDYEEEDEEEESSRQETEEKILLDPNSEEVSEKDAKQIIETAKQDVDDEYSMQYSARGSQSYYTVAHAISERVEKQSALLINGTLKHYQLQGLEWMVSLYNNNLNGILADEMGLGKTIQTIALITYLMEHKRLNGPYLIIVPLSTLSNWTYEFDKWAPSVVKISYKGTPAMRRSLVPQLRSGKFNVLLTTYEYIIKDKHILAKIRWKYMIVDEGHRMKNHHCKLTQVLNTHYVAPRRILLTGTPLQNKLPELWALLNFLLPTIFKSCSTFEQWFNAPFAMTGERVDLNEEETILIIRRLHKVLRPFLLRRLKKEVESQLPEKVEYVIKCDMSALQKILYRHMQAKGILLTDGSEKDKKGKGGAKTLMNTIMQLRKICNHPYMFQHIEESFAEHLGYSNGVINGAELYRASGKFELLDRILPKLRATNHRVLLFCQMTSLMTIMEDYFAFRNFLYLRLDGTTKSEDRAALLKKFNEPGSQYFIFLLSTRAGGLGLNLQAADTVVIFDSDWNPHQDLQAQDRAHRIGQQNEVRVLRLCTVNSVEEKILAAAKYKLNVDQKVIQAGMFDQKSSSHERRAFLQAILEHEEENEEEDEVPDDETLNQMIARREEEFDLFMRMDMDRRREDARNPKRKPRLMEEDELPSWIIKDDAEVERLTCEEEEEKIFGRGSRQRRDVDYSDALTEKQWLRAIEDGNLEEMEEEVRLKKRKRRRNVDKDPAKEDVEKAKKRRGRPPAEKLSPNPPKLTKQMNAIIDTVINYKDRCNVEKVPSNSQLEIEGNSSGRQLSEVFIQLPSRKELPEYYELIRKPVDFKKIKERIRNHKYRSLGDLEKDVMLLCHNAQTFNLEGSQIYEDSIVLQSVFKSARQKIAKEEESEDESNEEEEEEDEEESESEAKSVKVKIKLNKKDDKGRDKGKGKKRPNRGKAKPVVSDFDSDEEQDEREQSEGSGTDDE
compound,measurement,setting,value
"Cc1ncsc1-c1ccc([C@H](C)NC(=O)[C@@H]2C[C@@H](O)CN2C(=O)[C@@H](c2cc(N3CCC(CN4CCC(O[C@H]5C[C@@H](CN6CCC(C(C)n7cc(-c8cc(-c9ccccc9O)nnc8N)cn7)CC6)C5)CC4)CC3)no2)C(C)C)cc1 (stereo partly drawn) [compound 664, (2S,4R)-1-((2R)-2-(3-(4-((4-((1s,3s)-3-((4-(1-(4-(3-amino-6-(2-hydroxyphenyl)pyridazin-4-yl)-1H-pyrazol-1-yl)ethyl)piperidin-1-yl)methyl)cyclobutoxy)piperidin-1-yl)methyl)piperidin-1-yl)isoxazol-5-yl)-3-methylbutanoyl)-4-hydroxy-N-((S)-1-(4-(4-methylthiazol-5-yl)phenyl)ethyl)pyrrolidine-2-carboxamide]",DC50,"SW1573 cells, read-out: DC50",< 2.5 nM
same,Dmax,[1],> 75%
"Cc1ncsc1-c1ccc([C@H](C)NC(=O)[C@@H]2C[C@@H](O)CN2C(=O)[C@@H](c2cc(OCCCc3ccc(C(C)n4cc(-c5cc(-c6ccccc6O)nnc5N)cn4)cc3)no2)C(C)C)cc1 (stereo partly drawn) [compound 60, (2S,4R)-1-((2R)-2-(3-(3-(4-(1-(4-(3-amino-6-(2-hydroxyphenyl)pyridazin-4-yl)-1H-pyrazol-1-yl)ethyl)phenyl)propoxy)isoxazol-5-yl)-3-methylbutanoyl)-4-hydroxy-N-((S)-1-(4-(4-methylthiazol-5-yl)phenyl)ethyl)pyrrolidine-2-carboxamide]",DC50,"SW1573 cells, read-out: DC50",< 2.5 nM
same,Dmax,[2],> 75%
"Cc1ncsc1-c1ccc([C@H](C)NC(=O)[C@@H]2C[C@@H](O)CN2C(=O)[C@@H](NC(=O)COCCN2CCC(O[C@H]3C[C@H](Oc4cc(N5C6CCC5CN(c5cc(-c7ccccc7O)nnc5N)C6)ccn4)C3)CC2)C(C)(C)C)cc1 [compound 183, (2S,4R)-1-((2S)-2-(2-(2-(4-((1r,3S)-3-((4-(3-(3-amino-6-(2-hydroxyphenyl)pyridazin-4-yl)-3,8-diazabicyclo[3.2.1]octan-8-yl)pyridin-2-yl)oxy)cyclobutoxy)piperidin-1-yl)ethoxy)acetamido)-3,3-dimethylbutanoyl)-4-hydroxy-N-((S)-1-(4-(4-methylthiazol-5-yl)phenyl)ethyl)pyrrolidine-2-carboxamide]",DC50,"SW1573 cells, read-out: DC50",< 2.5 nM
same,Dmax,[3],> 75%
"Cc1ncsc1-c1ccc([C@H](C)NC(=O)[C@@H]2C[C@@H](O)CN2C(=O)[C@H](c2cc(N3CCC(CN4CCC(O[C@H]5C[C@H](CN6CCOC7(CCN(c8cc(-c9ccccc9O)nnc8N)CC7)C6)C5)CC4)CC3)no2)C(C)C)cc1 [compound 609, (2S,4R)-1-((S)-2-(3-(4-((4-((1r,3r)-3-((9-(3-amino-6-(2-hydroxyphenyl)pyridazin-4-yl)-1-oxa-4,9-diazaspiro[5.5]undecan-4-yl)methyl)cyclobutoxy)piperidin-1-yl)methyl)piperidin-1-yl)isoxazol-5-yl)-3-methylbutanoyl)-4-hydroxy-N-((S)-1-(4-(4-methylthiazol-5-yl)phenyl)ethyl)pyrrolidine-2-carboxamide]",DC50,[4],> 30 nM
"CC(C)[C@@H](C(=O)N1C[C@H](O)C[C@H]1C(=O)N[C@@H](C)c1ccc(C#N)cc1)c1cc(N2CCC(CN3CCC(O[C@H]4C[C@H](Oc5cc(N6C7CCC6CN(c6cc(-c8ccccc8O)nnc6N)C7)ccn5)C4)CC3)CC2)no1 [compound 640, (2S,4R)-1-((2R)-2-(3-(4-((4-((1r,3r)-3-((4-(3-(3-amino-6-(2-hydroxyphenyl)pyridazin-4-yl)-3,8-diazabicyclo[3.2.1]octan-8-yl)pyridin-2-yl)oxy)cyclobutoxy)piperidin-1-yl)methyl)piperidin-1-yl)isoxazol-5-yl)-3-methylbutanoyl)-N-((S)-1-(4-cyanophenyl)ethyl)-4-hydroxypyrrolidine-2-carboxamide]",DC50,"SW1573 cells, read-out: DC50",< 2.5 nM
same,Dmax,[1],> 75%
"Cc1ncsc1-c1ccc([C@H](COCC2CCOCC2)NC(=O)[C@@H]2C[C@@H](O)CN2C(=O)[C@@H](c2cc(OCCN3CCN(CCOc4cc(N5C6CCC5CN(c5cc(-c7ccccc7O)nnc5N)C6)ccn4)CC3)no2)C(C)C)cc1 [compound 130, (2S,4R)-1-((2R)-2-(3-(2-(4-(2-((4-(3-(3-amino-6-(2-hydroxyphenyl)pyridazin-4-yl)-3,8-diazabicyclo[3.2.1]octan-8-yl)pyridin-2-yl)oxy)ethyl)piperazin-1-yl)ethoxy)isoxazol-5-yl)-3-methylbutanoyl)-4-hydroxy-N-((R)-1-(4-(4-methylthiazol-5-yl)phenyl)-2-((tetrahydro-2H-pyran-4-yl)methoxy)ethyl)pyrrolidine-2-carboxamide]",DC50,"SW1573 cells, read-out: DC50",2.5 to 10 nM
same,Dmax,[2],> 75%
"Cc1ncsc1-c1ccc([C@H](C)NC(=O)[C@@H]2C[C@@H](O)CN2C(=O)[C@H](c2cc(OCC#Cc3ncc(O[C@H]4C[C@H](Oc5cc(N6C7CCC6CN(c6cc(-c8ccccc8O)nnc6N)C7)ccn5)C4)cn3)no2)C(C)C)cc1 [compound 231, (2S,4R)-1-((2S)-2-(3-((3-(5-((1r,3S)-3-((4-(3-(3-amino-6-(2-hydroxyphenyl)pyridazin-4-yl)-3,8-diazabicyclo[3.2.1]octan-8-yl)pyridin-2-yl)oxy)cyclobutoxy)pyrimidin-2-yl)prop-2-yn-1-yl)oxy)isoxazol-5-yl)-3-methylbutanoyl)-4-hydroxy-N-((S)-1-(4-(4-methylthiazol-5-yl)phenyl)ethyl)pyrrolidine-2-carboxamide]",DC50,"SW1573 cells, read-out: DC50",< 2.5 nM
same,Dmax,[3],> 75%
"Cc1ncsc1-c1ccc([C@H](CCO)NC(=O)[C@@H]2C[C@@H](O)CN2C(=O)[C@@H](c2cc(N3CCC(CN4CCC(O[C@H]5C[C@H](Oc6cc(N7C8CCC7CN(c7cc(-c9ccccc9O)nnc7N)C8)ccn6)C5)CC4)CC3)no2)C(C)C)cc1 [compound 661, (2S,4R)-1-((2R)-2-(3-(4-((4-((1r,3r)-3-((4-(3-(3-amino-6-(2-hydroxyphenyl)pyridazin-4-yl)-3,8-diazabicyclo[3.2.1]octan-8-yl)pyridin-2-yl)oxy)cyclobutoxy)piperidin-1-yl)methyl)piperidin-1-yl)isoxazol-5-yl)-3-methylbutanoyl)-4-hydroxy-N-((S)-3-hydroxy-1-(4-(4-methylthiazol-5-yl)phenyl)propyl)pyrrolidine-2-carboxamide]",DC50,"SW1573 cells, read-out: DC50",< 2.5 nM
same,Dmax,[1],> 75%
"CC[C@H](NC(=O)[C@@H]1C[C@@H](O)CN1C(=O)[C@H](c1cc(OCCN2CCC(O[C@H]3C[C@H](Oc4cc(N5C6CCC5CN(c5cc(-c7ccccc7O)nnc5N)C6)ccn4)C3)CC2)no1)C(C)C)c1ccc(-c2scnc2C)cc1 [compound 350, (2S,4R)-1-((2S)-2-(3-(2-(4-((1r,3S)-3-((4-(3-(3-amino-6-(2-hydroxyphenyl)pyridazin-4-yl)-3,8-diazabicyclo[3.2.1]octan-8-yl)pyridin-2-yl)oxy)cyclobutoxy)piperidin-1-yl)ethoxy)isoxazol-5-yl)-3-methylbutanoyl)-4-hydroxy-N-((S)-1-(4-(4-methylthiazol-5-yl)phenyl)propyl)pyrrolidine-2-carboxamide]",DC50,"SW1573 cells, read-out: DC50",> 30 nM
"Cc1ncsc1-c1ccc([C@H](C)NC(=O)[C@@H]2C[C@@H](O)CN2C(=O)[C@@H](c2cc(OCCN3CCN(CCOCCn4cc(-c5cc(-c6ccccc6O)nnc5N)cn4)CC3)no2)C(C)C)cc1 [compound 62, (2S,4R)-1-((R)-2-(3-(2-(4-(2-(2-(4-(3-amino-6-(2-hydroxyphenyl)pyridazin-4-yl)-1H-pyrazol-1-yl)ethoxy)ethyl)piperazin-1-yl)ethoxy)isoxazol-5-yl)-3-methylbutanoyl)-4-hydroxy-N-((S)-1-(4-(4-methylthiazol-5-yl)phenyl)ethyl)pyrrolidine-2-carboxamide]",DC50,"SW1573 cells, read-out: DC50",2.5 to 10 nM
same,Dmax,[2],> 75%
"Cc1ncsc1-c1ccc([C@@H](NC(=O)[C@@H]2C[C@@H](O)CN2C(=O)[C@H](c2cc(N3CCC(CN4CCC(O[C@H]5C[C@H](Oc6cc(N7C8CCC7CN(c7cc(-c9ccccc9O)nnc7N)C8)ccn6)C5)CC4)CC3)no2)C(C)C)C(=O)N(C)C2CCC2)cc1 [compound 612, (2S,4R)-1-((2R)-2-(3-(4-((4-((1r,3r)-3-((4-(3-(3-amino-6-(2-hydroxyphenyl)pyridazin-4-yl)-3,8-diazabicyclo[3.2.1]octan-8-yl)pyridin-2-yl)oxy)cyclobutoxy)piperidin-1-yl)methyl)piperidin-1-yl)isoxazol-5-yl)-3-methylbutanoyl)-N-((R)-2-(cyclobutyl(methyl)amino)-1-(4-(4-methylthiazol-5-yl)phenyl)-2-oxoethyl)-4-hydroxypyrrolidine-2-carboxamide]",Dmax,"SW1573 cells, Table 2D, read-out: **Dmax (%) (% degraded)",> 75%
same,DC50,[4],< 2.5 nM
"Cc1cc([C@@H](C(=O)N2C[C@H](O)C[C@H]2C(=O)N[C@@H](COCCCCCc2cc(-c3ccccc3O)nnc2N)c2ccc(-c3scnc3C)cc2)C(C)C)on1 [compound 529, (2S,4R)-N-((R)-2-((5-(3-amino-6-(2-hydroxyphenyl)pyridazin-4-yl)pentyl)oxy)-1-(4-(4-methylthiazol-5-yl)phenyl)ethyl)-4-hydroxy-1-((S)-3-methyl-2-(3-methylisoxazol-5-yl)butanoyl)pyrrolidine-2-carboxamide]",DC50,read-out: BRM DC50,> 30 nM
"Cc1ncsc1-c1ccc([C@H](C)NC(=O)[C@@H]2C[C@@H](O)CN2C(=O)[C@H](c2cc(N3CCC(OC4CCN([C@H]5C[C@H](CN6CCOC7(CCN(c8cc(-c9ccccc9O)nnc8N)CC7)C6)C5)CC4)CC3)no2)C(C)C)cc1 [compound 615, (2S,4R)-1-((S)-2-(3-(4-((1-((1r,3S)-3-((9-(3-amino-6-(2-hydroxyphenyl)pyridazin-4-yl)-1-oxa-4,9-diazaspiro[5.5]undecan-4-yl)methyl)cyclobutyl)piperidin-4-yl)oxy)piperidin-1-yl)isoxazol-5-yl)-3-methylbutanoyl)-4-hydroxy-N-((S)-1-(4-(4-methylthiazol-5-yl)phenyl)ethyl)pyrrolidine-2-carboxamide]",DC50,[4],> 30 nM
